One series can be described thus: physchem. The settings on record: for solubility: 20 °C, organic solvent or mixture. On the procedure:
A) Pyraclostrobin was added at 20° C. to benzaldehyde dimethyl acetal or p-anisaldehyde dimethyl acetal, with stirring.

Series [1] is described as follows: Flash point (DIN 53213-1). It counts as physicochemical. The settings on record: measured as specified in DIN 53213-1.
For series [2] the following is noted: EU directive 67/548/EEC, 1999/45/EC or 88/379/EEC; cited from earlier work.
How the values of series [3] were obtained:
The solubility of benzaldehyde dimethyl acetal or p-anisaldehyde dimethyl acetal in water at 20° C. was analyzed.

A short description of the next series: Viscosity. It counts as physicochemical. As to conditions: 20° C.

Values after ≈ are worked out from the molar mass of the structure shown.

Broadly, the solubility is the concentration that dissolves in the medium under given conditions.

For `C#CCN1C(=O)C(F)(F)Oc2cc(F)c(-n3c(=O)n(C)c(=S)n(C)c3=O)cc21` [1,5-dimethyl-6-thioxo-3-(2,2,7-trifluoro-3-oxo-4-(prop-2-ynyl)-3,4-dihydro-2H-benzo[b][1,4]oxazin-6-yl)-1,3,5-triazinan-2,4-dione], the solubility in the series “physchem” (maximum solubility in Solvesso 150 ND) came to 19 mg/mL (≈ 46.1 mM); in the series “physchem” (maximum solubility in Solvesso 200 ND), 63 mg/mL (≈ 153 mM); in the series “physchem” (maximum solubility in p-anisaldehyde dimethyl acetal), 214 mg/mL (≈ 519 mM).
Take `COC(OC)c1ccccc1` [Benzaldehyde dimethyl acetal, reference compound]: in series [1], the flash point was 69 °C. For the same compound, in series [2], the “EU R phrase” value is “R22—harmful if swallowed” and the EU hazard classification result is reported as “Xn—harmful”.
On to `COC(=O)N(OC)c1ccccc1COc1ccn(-c2ccc(Cl)cc2)n1` [Pyraclostrobin, reference compound], for which the “solubility in benzaldehyde dimethyl acetal” value in “physchem” (20° C., with stirring, solvent benzaldehyde dimethyl acetal (not inventive)) is reported as “at least 50 % by weight”. Further, in the series “physchem” (20° C., with stirring, solvent p-anisaldehyde dimethyl acetal), the “solubility in p-anisaldehyde dimethyl acetal” value is “at least 50 % by weight”.
`COc1ccc(C(OC)OC)cc1` [p-Anisaldehyde dimethyl acetal] displayed a solubility in water in series [3] of at most 0.1 % by weight. Further, the flash point in series [1] came to 114 °C. Moreover, in series [2], the “EU R phrase” value is listed as “without R phrase” and the EU hazard classification result is “without classification”. This compound registered a viscosity in the series “Viscosity” of 5.5 mPas.

The values above are taken from US9585382B2, “Composition comprising a pesticide and an acetal solvent” (priority 2011, dated 2017).
